pIC50: −log10 of the molar value.
Assays:
ROCK protein kinase = experiment: Evaluation of ROCK protein kinase inhibitory activity in vitro (33P-ATP filter-binding); assay type: biochemical; conditions: 1 nM ROCK, 20 μM Long S6 Kinase substrate peptide, room temperature, two hours
Protocol: Evaluation of ROCK Protein Kinase Inhibitory Activity In Vitro
Experimental object: detecting the inhibitory IC50 value of ROCK protein kinase of the compounds.
Assay buffer solution: 20 mM Hepes (pH 7.5), 10 mM MgCl2, 1 mM EGTA, 0.02% Brij35, 0.02 mg/ml BSA, 0.1 mM Na3VO4, 2 mM DTT, 1% DMSO
ROCK protein kinase substrate Long S6 Kinase substrate peptide was added to the freshly prepared buffer solution at a concentration of 20 μM. Then 1 nM ROCK protein kinase was added and stirred evenly. […] After pre-incubating at room temperature for 20 minutes, ^33P-ATP (radiation intensity 10 μCi/μL) was added to initiate the reaction and the reaction was carried out at room temperature for two hours. […] The Filter-Binding method was used to detect radiation intensity.
The protein kinase inhibitory activity of the compound was expressed as the residual protein kinase activity of a relatively blank substrate (DMSO alone). IC50 values and curves were calculated using Prism software package (GraphPad Software, san Diego Calif., USA).

[1] = test system: bleomycin-induced rat pulmonary fibrosis; experiment: Pharmacodynamics in rats: bleomycin-induced unilateral (left lung) pulmonary fibrosis model; assay type: in vivo, SD rats; conditions: for Percentage of pulmonary fibrosis score vs. model group (FIG. 2): Ashcraft score, boundary at 3 (3 or below vs. 4 or above)
Protocol: Animals in each group started to be administered orally by gavage on the 8th day of modeling for a total of 14 days. All animals were euthanized the next day after the last administration, and the left lung was taken, and the same amount of formalin solution was infused into the lungs, the lung fibrosis score was analyzed by weighing and lung pathology.
Masson Trichrome staining was used for pathological evaluation of pulmonary fibrosis lesion area, pulmonary fibrosis pathology score, and fibrosis grade parameters for left lung pulmonary fibrosis lesions. […] (FIG. 2).

hERG potassium channel = hERG potassium channel (Homo sapiens, UniProt Q12809); experiment: hERG experiment (QPatch HTX whole-cell, CHO-hERG cells); assay type: cell-based; conditions: room temperature, tested at 0.24 to 30.00 μM, read-out: hERG inhibitory activity (IC50)
Chain of hERG potassium channel (Q12809 whole entry): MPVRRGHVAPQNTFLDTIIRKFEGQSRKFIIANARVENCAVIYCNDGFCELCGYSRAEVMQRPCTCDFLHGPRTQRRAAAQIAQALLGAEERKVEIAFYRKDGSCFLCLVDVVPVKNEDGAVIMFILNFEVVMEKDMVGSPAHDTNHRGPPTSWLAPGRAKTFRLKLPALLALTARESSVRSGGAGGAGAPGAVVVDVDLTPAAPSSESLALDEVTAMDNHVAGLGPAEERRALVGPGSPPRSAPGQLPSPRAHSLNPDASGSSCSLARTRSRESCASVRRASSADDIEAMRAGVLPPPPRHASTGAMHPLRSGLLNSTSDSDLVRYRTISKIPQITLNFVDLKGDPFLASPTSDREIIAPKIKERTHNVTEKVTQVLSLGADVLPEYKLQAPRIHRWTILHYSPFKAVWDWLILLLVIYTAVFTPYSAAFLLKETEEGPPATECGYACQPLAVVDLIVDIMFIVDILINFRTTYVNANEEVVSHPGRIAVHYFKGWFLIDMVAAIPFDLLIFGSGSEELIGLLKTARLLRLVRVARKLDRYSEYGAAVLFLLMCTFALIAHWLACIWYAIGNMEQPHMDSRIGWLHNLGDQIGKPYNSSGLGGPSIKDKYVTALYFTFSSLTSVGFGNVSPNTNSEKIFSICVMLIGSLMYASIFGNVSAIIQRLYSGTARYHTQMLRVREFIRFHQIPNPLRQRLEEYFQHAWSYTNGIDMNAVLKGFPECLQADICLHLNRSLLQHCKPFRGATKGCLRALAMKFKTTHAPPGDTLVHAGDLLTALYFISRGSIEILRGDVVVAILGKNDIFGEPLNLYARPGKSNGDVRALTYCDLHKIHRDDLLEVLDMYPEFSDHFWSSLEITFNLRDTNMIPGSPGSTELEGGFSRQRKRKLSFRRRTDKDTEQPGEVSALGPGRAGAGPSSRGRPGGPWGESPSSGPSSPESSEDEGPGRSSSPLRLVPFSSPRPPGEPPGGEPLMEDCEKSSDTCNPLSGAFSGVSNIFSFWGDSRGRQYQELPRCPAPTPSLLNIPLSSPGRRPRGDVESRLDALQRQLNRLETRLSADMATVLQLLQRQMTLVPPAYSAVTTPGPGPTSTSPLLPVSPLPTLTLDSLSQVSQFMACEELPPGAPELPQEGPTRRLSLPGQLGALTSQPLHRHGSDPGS
Protocol: The cells stably expressing hERG potassium channel used in the experiment were derived from CHO-hERE of Aviva Biosciences, CHO-hERG was cultured under 5% CO2 at 37° C. hERGQPatch^HTX experiments were performed at room temperature. QPatch AssaySoftware 5.2 (Sophion Bioscience) software was used to establish whole-cell protocols, voltage stimulation protocols and compound detection protocols. First, the voltage stimulation was repeated for 30 times, this section was used as the baseline area for subsequent analysis, then 5 μL extracellular fluid was added and repeated three times. The effect concentrations of each compound were added one after the other, repeating three times by the addition of 5 μL volume. The cells were incubated at each test concentration for at least 5 mins. During the entire recording process, each indicator must meet the data analysis acceptance criteria, if the criterion is not met, the cell will not be counted in the analysis range, and the compound will be tested again, the above recording process is automatically operated by Qpatch analysis software. […] In each complete current record, based on the percentage of peak current in the negative control group, the percentage inhibition of the effect concentration of each compound can be calculated. […]

[2] = Evaluation of pharmacokinetics in rats; assay type: in vivo; conditions: rat, plasma, male SD rats, single administration, groups 2 mg/kg intravenous and 10 mg/kg oral gavage, route for this parameter not stated
Protocol: Evaluation of Pharmacokinetics in Rats Male SD rats were used as test animals, after a single administration, the blood concentrations of the compounds were measured and the pharmacokinetic behavior was evaluated. Six healthy adult male SD rats (7-10 weeks of age, purchased from Shanghai Slack Experimental Animal Co., Ltd.) were randomly divided into two groups of three animals each, and one group was administered the test compound intravenously at 2 mg/kg, the other group was administered orally by gavage the test compound at 10 mg/kg. The vehicle in the intravenous administration group and the gastric administration group was both 10% DMSO+18% HP-β-CD+72% physiological saline. Blood samples were collected from the animals in the intravenous group at 0.0833, 0.25, 0.5, 1, 2, 4, 8, and 24 hours after the administration, and blood samples were collected from the animals in the gavage group at 0.25, 0.5, 1, 2, 4, 6, 8 and 24 hours after the administration. LCMS-MS method was used to determine the plasma drug concentration. WinNonlin™ version 6.3 (Pharsight Mountain View, Calif.) pharmacokinetic software was used to calculate the relevant pharmacokinetic parameters by non-compartment model logarithmic trapezoid method.

[3] = positive drugs: nintedanib 100 and 30 mg/kg/d-qd, pirfenidone 50 and 15 mg/kg/d-bid, oral gavage, 14 days, p<0.05

CC1C2NCCC2CN1S(=O)(=O)c1cccc2cncc(F)c12 (stereo not shown) [embodiment 6-1]
pIC50 (ROCK protein kinase): 7.19

CC1C2NCCC2CN1S(=O)(=O)c1cccc2cnccc12 (stereo not shown) [embodiment 7-1]
pIC50 (ROCK protein kinase): 7.20

COC(=O)c1ccc2c(c1)NC(=O)/C2=C(\Nc1ccc(N(C)C(=O)CN2CCN(C)CC2)cc1)c1ccccc1 [nintedanib, reference compound]
Percentage of pulmonary fibrosis score vs. model group (FIG. 2) ([1]; oral gavage, 14 days): significant differences compared with the model group
Pulmonary fibrosis Ashcraft score vs. model group (FIG. 1) [1, 3]: significantly improved the degree of pulmonary fibrosis

Cc1cncc2cccc(S(=O)(=O)N3C[C@@H]4CCN[C@@H]4C3)c12 [Embodiment 38 (WO2015/165341), reference compound]
pIC50 (hERG potassium channel): 5.34

CC1C2NCCC2CN1S(=O)(=O)c1cccc2cnccc12 (stereo not shown) [embodiment 7-2]
pIC50 (ROCK protein kinase): 7.82

CC1C2NCCC2CN1S(=O)(=O)c1cccc2cncc(F)c12 (stereo not shown) [embodiment 6-2]
pIC50 (ROCK protein kinase): 8.10

O=S(=O)(c1cccc2cncc(Cl)c12)N1CC2CCNC2C12CC2 (stereo not shown) [embodiment 2]
pIC50 (ROCK protein kinase): 7.49

Cc1cncc2cccc(S(=O)(=O)N3CC4CCNC4C3C)c12 (stereo not shown) [embodiment 8]
pIC50 (ROCK protein kinase): 7.74

CC1C2NCCC2CN1S(=O)(=O)c1cccc2cncc(F)c12 (stereo not shown) [embodiment 6]
Percentage of pulmonary fibrosis score vs. model group (FIG. 2) ([1]; oral gavage, 14 days): significant statistical difference compared with the model group
Lowest dose effective in inhibiting pulmonary fibrosis ([1]; administered continuously for two weeks): ≤ 1 mg/kg BID
Pulmonary fibrosis-improving effect compared with reference drugs ([1]; compared with nintedanib, pirfenidone and fasudil): comparable to that of nintedanib, pirfenidone, and fasudil at lower doses
Pulmonary fibrosis Ashcraft score vs. model group (FIG. 1) ([1]; oral, once a day at 3 mg/kg, 14 days, consistent with the same dose twice daily): significant effect on inhibiting pulmonary fibrosis
Pulmonary fibrosis Ashcraft score vs. model group (FIG. 1) ([1]; oral, twice a day at three doses (1, 3, 10 mg/kg/d-bid), 14 consecutive days, p<0.001): significant inhibition of pulmonary fibrosis
pIC50 (ROCK protein kinase): 7.92
clearance ([2]; read-out: Clearance rate (Cl)): 43.8 mL/min/kg
half-life ([2]; read-out: Half-life period (T1/2) (converted)): 1.12 h
pIC50 (hERG potassium channel): < 4.52

O=S(=O)(c1cccc2cnccc12)N1CC2CCNC2C12CC2 (stereo not shown) [embodiment 1]
pIC50 (ROCK protein kinase): 7.70

CC1C2NCCC2CN1S(=O)(=O)c1cccc2cnccc12 (stereo not shown) [embodiment 7]
pIC50 (ROCK protein kinase): 7.55

CC1C2NCCC2CN1S(=O)(=O)c1cccc2c(O)ncc(F)c12 (stereo not shown) [embodiment 10]
pIC50 (ROCK protein kinase): 6.11

O=S(=O)(c1cccc2cncc(F)c12)N1CC2CCNC2C12CC2 (stereo not shown) [embodiment 3]
pIC50 (ROCK protein kinase): 7.03

Cc1ccc(=O)n(-c2ccccc2)c1 [pirfenidone, reference compound]
Percentage of pulmonary fibrosis score vs. model group (FIG. 2) ([1]; oral gavage, 14 days): significant differences compared with the model group
Pulmonary fibrosis Ashcraft score vs. model group (FIG. 1) [1, 3]: significantly improved the degree of pulmonary fibrosis

O=S(=O)(c1cccc2cnccc12)N1CCCNCC1 [Fasudil, reference compound]
Pulmonary fibrosis Ashcraft score vs. model group (FIG. 1) ([1]; oral, once a day at 25 mg/kg, 14 consecutive days, p<0.001): achieved the same effect as the positive drug in inhibiting pulmonary fibrosis
